{"source": "patent US20140087970A1", "about": "“SERINE BIOSYNTHESIS PATHWAY INHIBITION FOR TREATMENT OF CANCER” (Whitehead Institute for Biomedical Research, priority 2011, published 2014)", "test_system": "cell lines with elevated PHGDH expression (BT-20, MDA-MB-468, HCC70, Hs578T and MT3)", "assay": "Cell proliferation assay after lentiviral shRNA infection", "format": "cell-based, human", "conditions": "media supplemented during PHGDH knockdown", "protocol": "For PHGDH or PSPH knockdown experiments, 10,000-20,000 MDA-MB-468, BT-20, HCC70, MCF-7, or MDA-MB-23 I cells were infected with shRNA-expressing lentiviruses of known titers at a multiplicity of infection of 2.5 to 5. Cells were cultured in 12-well plates and infected via a 30-minute spin at 2,250 RPM in a Beckman Coulter Allegra X-12R centrifuge with an SX4750 rotor and uPlate Carrier attachment followed by an overnight incubation in media containing polybrene. Eight days after infection the number of cells was determined using a Coulter Counter (Beckman) and used to calculate relative cell proliferation. Where indicated, standard RPMI media was supplemented with serine to concentrations 5-fold that of the serine already in the media. Where indicated, supplementation occurred at one and four days after lentiviral infection. For serine depletion experiments, cells were plated out as described above and the following day the standard culture medium was replaced with medium lacking serine or reconstituted with 1× serine. Dialyzed serum (3 kDa MWCO) was utilized in serine depletion experiments except in the case of MCF-10A cells, where standard 5% serum was utilized.", "data": [{"smiles": "N[C@@H](CO)C(=O)O", "note": "[serine]", "values": [{"measurement": "effect of media supplementation on the PHGDH knockdown proliferation phenotype", "result": "did not blunt the effects of the PHGDH knockdown"}]}, {"smiles": "COC(=O)C(N)CO", "note": "(centres unmarked) [methyl-serine-ester]", "values": [{"measurement": "effect of media supplementation on the PHGDH knockdown proliferation phenotype", "result": "did not blunt the effects of the PHGDH knockdown"}]}]}
